# Calls of active or inactive are those of the source.
# Columns and labels:
# SUMO E1/E2 = SUMO E1/E2 (Homo sapiens, UniProt P63279+Q9UBE0+Q9UBT2); assay: SAR analysis of SUMOylation using HTRF in an in-Vitro dose response assay. [Related pubchem assays (depositor defined):AID2006, AID2011, AID2018, AID2069, AID2658]; type: functional
# [1] = luciferase reporter signal suppression in cells – H4 neuroglioma cells, luminescence, dose response (AID 1990); type: functional, cell-based
# [2] = decrease of insulin promoter-GFP reporter – imaging, high-content screening, mouse beta cells (AID 1628); type: functional; settings: MIN6
# BJ [3] = assay: BJ-TERT fibroblast viability loss – cell-based, RAS-independent, luminescence, dose response (AID 1933); type: functional; settings: Homo sapiens
# [4] = Luminescence Cell-Based Dose Response HTS to Identify Inhibitors of 5'UTR Stem-Loop Driven Prion Protein mRNA Translation in H4 Neuroglioblastoma Cells. [Related pubchem assays: 1827 (Project Summary), 1813 (Primary HTS)]; type: functional
# [5] = MIN6 cell viability loss – mouse insulinoma, cytotoxicity control, dose response (AID 2122); type: functional;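 note: confirmatory high-throughput counterscreen run to flag cytotoxic compounds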
# [6] = alpha-synuclein stem-loop luciferase translation blockers – H4 neuroglioma cells, luminescence, confirmation (AID 1988); type: functional, cell-based
# BJ [7] = assay: cells; type: functional, cell-based; settings: Homo sapiens
# BJ [8] = assay: BJ-TERT-LT-ST fibroblast viability loss – cell-based, RAS-independent, luminescence, dose response (AID 1935); type: functional; settings: Homo sapiens;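 note: BJ fibroblasts immortalized with TERT plus LT and ST oncogenes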
# [9] = DRD fibroblast viability loss – cell-based, non-viral oncogenic, luminescence, dose response (AID 1934); type: functional; settings: Homo sapiens
# [10] = THP-1 cell cytotoxicity, dose response, cytotoxicity control for non-replicating M. tuberculosis project (AID 489025); type: functional
# [11] = HepG2 cell cytotoxicity, dose response, cytotoxicity control for non-replicating M. tuberculosis project (AID 489018); type: functional; settings: Mycobacterium tuberculosis
# [12] = Vero E6 cell cytotoxicity, dose response, cytotoxicity control for non-replicating M. tuberculosis project, secondary assay (AID 492998); type: functional, VeroE6; settings: Vero C1008
# [13] = HEK-293T viability loss after treatment – luminescence, T-cell screen hits, cytotoxicity control for TCR NF-kB inhibitor project, dose response (AID 489026); type: functional, cell-based;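 note: cells exposed to compound about 14 hours before the viability readout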
# cells = type: functional
# [14] = biological target: T1, Tyrosine-protein phosphatase non-receptor type 7 (Homo sapiens, UniProt P35236); type: functional
# T1 sequence (P35236 whole entry): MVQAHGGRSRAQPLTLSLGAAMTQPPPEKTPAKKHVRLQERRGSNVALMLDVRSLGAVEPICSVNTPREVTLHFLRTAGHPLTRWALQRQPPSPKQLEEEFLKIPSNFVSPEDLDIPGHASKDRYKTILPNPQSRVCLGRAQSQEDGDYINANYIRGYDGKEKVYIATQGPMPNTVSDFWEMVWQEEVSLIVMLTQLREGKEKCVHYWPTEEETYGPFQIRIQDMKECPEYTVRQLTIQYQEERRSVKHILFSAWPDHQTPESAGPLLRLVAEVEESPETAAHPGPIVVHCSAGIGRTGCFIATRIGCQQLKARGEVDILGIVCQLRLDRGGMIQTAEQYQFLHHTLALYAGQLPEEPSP
# [15] = biological target: T2, Tyrosine-protein phosphatase non-receptor type 22 (Homo sapiens, UniProt Q9Y2R2); type: functional
# T2 sequence (Q9Y2R2 whole entry): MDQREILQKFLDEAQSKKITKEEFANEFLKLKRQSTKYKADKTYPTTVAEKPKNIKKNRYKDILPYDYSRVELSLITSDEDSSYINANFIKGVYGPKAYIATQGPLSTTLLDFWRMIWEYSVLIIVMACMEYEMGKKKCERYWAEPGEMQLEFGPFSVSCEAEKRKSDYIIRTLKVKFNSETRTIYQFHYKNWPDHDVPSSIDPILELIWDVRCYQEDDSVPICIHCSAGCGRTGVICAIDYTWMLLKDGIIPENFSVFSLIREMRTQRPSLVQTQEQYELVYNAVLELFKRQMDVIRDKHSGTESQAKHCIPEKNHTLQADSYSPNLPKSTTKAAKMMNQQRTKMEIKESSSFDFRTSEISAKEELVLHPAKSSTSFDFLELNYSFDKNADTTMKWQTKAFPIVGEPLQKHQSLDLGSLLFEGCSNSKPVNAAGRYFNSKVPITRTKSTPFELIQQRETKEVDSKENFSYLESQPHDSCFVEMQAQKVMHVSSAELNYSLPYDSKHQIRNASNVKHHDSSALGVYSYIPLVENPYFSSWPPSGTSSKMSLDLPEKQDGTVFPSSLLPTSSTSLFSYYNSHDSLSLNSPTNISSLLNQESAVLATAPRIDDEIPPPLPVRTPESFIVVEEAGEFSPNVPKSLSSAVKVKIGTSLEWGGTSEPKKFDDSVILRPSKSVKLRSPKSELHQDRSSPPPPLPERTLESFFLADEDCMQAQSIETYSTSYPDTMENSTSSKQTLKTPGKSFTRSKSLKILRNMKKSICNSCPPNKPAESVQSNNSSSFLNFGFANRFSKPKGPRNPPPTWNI
# [16] = biological target: T2, Tyrosine-protein phosphatase non-receptor type 22; type: functional; remark: listed apart in the source
# [17] = biological target: Sphingosine 1-phosphate receptor 1 (Homo sapiens, UniProt P21453); assay: Fluorescence-based counterscreen assay for S1P4 agonists: Cell-based dose response high throughput screening assay to identify agonists of the Sphingosine 1-Phosphate Receptor 1 (S1P1). [Related pubchem assays (depositor defined):AID1509, AID1523, AID1801, AID463107, AID463118, AID463119, AID463122, AID463123, AID463129, AID463225, AID504400, AID504460]; type: functional
# [18] = biological target: T3, RNA-binding protein pos-1 (Caenorhabditis elegans, UniProt G5EF15); assay: disruptors of C. elegans POS-1 RNA interaction – biochemical, fluorescence polarization, dose response (AID 1964);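 note: purified POS-1 fused to maltose binding protein made in E. coli; potency of compounds blocking POS-1 binding to fluorescent RNA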
# T3 sequence (G5EF15 whole entry): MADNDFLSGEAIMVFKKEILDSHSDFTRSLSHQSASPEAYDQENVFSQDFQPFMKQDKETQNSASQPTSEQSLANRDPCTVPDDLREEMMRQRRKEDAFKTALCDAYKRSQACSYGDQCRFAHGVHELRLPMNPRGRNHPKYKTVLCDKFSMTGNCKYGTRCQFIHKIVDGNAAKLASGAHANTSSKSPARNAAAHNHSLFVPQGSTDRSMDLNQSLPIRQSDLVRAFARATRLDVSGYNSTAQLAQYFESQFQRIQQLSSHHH
# [19] = Counterscreen for IDE inhibitors: Luminescence-based cell-based high throughput dose response assay to identify compounds that are cytotoxic to HEK cells. [Related pubchem assays: 434962 (Primary screen (IDE inhibitors in singlicate)), 449730 (Counterscreen (Cytotoxicity in triplicate)), 435028 (Confirmation (IDE inhibitors in triplicate)) …; type: functional; settings: HEK293
# [20] = biological target: T4, Zinc finger protein mex-5 (Caenorhabditis elegans, UniProt Q9XUB2); assay: potency of MEX-5 RNA-binding blockers – biochemical, C. elegans, fluorescence polarization, dose response (AID 1960)
# T4 sequence (Q9XUB2 whole entry): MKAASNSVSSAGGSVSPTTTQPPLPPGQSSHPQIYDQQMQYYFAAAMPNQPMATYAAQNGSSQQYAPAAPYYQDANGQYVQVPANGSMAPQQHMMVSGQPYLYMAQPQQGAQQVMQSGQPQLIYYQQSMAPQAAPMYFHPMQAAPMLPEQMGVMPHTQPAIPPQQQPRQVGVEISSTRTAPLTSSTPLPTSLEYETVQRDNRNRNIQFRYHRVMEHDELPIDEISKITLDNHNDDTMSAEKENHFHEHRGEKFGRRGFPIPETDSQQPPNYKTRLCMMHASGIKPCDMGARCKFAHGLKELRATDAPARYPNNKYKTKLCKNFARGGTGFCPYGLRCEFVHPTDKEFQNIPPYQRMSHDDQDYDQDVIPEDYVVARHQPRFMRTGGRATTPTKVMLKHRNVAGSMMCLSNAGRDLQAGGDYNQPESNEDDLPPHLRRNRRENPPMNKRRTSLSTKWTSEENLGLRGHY
# [21] = biological target: T5, Sphingosine 1-phosphate receptor 4 (Homo sapiens, UniProt O95977); assay: Fluorescence dose response cell-based high throughput screening assay for agonists of the Sphingosine 1-Phosphate Receptor 4 (S1P4). [Related pubchem assays: 1509 (Primary screen.), 1523 (Confirmation screen in triplicates.)]; type: functional
# T5 sequence (O95977 whole entry): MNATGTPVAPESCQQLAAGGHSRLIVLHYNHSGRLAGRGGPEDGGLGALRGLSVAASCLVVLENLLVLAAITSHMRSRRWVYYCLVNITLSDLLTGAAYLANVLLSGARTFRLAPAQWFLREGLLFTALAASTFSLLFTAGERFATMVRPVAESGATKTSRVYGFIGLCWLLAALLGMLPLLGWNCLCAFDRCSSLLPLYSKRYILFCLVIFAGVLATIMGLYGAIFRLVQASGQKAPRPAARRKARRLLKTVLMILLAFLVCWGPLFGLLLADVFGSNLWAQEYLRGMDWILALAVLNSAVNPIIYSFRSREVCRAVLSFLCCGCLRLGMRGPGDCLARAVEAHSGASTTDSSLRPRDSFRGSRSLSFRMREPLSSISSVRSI
# Insulin-degrading enzyme = biological target: T6, Insulin-degrading enzyme (Homo sapiens, UniProt P14735); assay: Dose Response: Fluorescence polarization-based cell-based high throughput dose response assay for inhibitors of insulin-degrading enzyme (IDE). [Related pubchem assays: 434962 (Primary screen (IDE inhibitors in singlicate)), 449730 (Counterscreen (Cytotoxicity in triplicate)), 435028 (Confirmation (IDE inhibitors in triplicate)), 434984 (Summary …; type: functional
# T6 sequence (P14735 whole entry): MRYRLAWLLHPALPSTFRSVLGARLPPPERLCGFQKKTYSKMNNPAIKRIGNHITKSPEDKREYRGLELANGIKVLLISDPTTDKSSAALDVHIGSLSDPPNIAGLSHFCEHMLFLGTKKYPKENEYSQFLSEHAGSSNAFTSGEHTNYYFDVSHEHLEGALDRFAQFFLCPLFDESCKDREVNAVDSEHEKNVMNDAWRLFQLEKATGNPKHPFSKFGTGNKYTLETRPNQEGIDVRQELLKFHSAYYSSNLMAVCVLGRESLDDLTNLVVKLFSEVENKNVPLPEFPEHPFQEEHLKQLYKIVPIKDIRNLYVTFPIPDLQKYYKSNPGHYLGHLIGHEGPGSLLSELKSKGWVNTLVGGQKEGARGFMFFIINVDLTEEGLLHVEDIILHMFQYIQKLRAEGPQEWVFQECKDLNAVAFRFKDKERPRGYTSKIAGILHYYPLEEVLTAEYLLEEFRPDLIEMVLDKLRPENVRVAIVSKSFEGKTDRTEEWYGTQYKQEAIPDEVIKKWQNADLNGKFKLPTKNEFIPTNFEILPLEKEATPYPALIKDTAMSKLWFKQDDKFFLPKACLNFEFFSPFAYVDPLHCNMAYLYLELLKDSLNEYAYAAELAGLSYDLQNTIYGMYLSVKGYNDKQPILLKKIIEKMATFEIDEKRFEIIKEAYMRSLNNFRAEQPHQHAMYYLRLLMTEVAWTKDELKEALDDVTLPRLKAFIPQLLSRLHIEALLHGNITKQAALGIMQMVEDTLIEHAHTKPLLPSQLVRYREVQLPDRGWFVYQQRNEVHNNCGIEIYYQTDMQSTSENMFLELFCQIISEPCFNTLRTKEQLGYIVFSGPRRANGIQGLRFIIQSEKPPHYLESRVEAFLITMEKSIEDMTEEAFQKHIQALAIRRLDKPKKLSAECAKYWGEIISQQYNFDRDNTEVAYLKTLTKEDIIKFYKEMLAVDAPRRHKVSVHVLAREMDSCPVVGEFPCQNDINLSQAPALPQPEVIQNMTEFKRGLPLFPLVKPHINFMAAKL
# CAAX prenyl protease 2 = CAAX prenyl protease 2 (Homo sapiens, UniProt Q9Y256); assay: inhibition of Ras-converting CAAX protease Rce1 – biochemical, yeast membranes, quenched-peptide fluorescence, cherry-pick, dose response (AID 588849)
# [22] = biological target: Lysine-specific demethylase 4A (Homo sapiens, UniProt O75164); assay: inhibition of JMJD2A H3K9me3 demethylation – biochemical, DELFIA europium, cherry-picked samples, selectivity assay for GASC-1 inhibitor project, dose response (AID 488840)
# [23] = biological target: Lysine-specific demethylase 4C (Homo sapiens, UniProt Q9H3R0); assay: inhibition of JMJD2C H3K9me3 demethylation – biochemical, DELFIA europium, cherry-picked samples, dose response (AID 488835); type: functional
# Lysine-specific demethylase 4C, sequence (Q9H3R0 whole entry): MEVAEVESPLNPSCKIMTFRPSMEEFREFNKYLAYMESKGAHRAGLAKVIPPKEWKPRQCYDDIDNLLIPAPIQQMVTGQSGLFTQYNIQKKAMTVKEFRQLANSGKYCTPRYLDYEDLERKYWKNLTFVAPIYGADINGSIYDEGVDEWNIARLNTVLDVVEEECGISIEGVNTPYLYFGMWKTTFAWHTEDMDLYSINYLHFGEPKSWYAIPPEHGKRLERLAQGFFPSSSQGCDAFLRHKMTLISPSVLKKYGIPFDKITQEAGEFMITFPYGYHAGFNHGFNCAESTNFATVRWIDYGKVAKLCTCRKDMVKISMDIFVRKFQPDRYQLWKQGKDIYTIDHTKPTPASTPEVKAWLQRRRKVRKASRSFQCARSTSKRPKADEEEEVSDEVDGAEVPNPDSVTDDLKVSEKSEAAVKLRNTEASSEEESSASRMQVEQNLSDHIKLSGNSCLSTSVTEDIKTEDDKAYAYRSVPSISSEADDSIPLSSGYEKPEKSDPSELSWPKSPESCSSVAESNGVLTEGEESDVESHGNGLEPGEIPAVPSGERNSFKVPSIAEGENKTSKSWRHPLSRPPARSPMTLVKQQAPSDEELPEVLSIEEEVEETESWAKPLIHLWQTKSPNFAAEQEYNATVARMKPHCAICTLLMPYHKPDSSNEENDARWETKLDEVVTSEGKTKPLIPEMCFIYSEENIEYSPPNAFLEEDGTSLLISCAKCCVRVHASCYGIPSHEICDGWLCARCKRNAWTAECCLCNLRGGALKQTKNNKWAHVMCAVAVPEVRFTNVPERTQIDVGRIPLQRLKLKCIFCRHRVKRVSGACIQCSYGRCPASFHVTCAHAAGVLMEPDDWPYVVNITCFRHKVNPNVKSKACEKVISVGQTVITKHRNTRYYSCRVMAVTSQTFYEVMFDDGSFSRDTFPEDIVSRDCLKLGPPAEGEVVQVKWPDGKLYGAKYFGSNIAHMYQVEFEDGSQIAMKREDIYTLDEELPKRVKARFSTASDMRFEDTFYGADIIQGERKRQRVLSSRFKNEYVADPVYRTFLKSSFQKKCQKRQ
# Sphingosine 1-phosphate receptor 1, sequence (P21453 whole entry, the tested form may be a part): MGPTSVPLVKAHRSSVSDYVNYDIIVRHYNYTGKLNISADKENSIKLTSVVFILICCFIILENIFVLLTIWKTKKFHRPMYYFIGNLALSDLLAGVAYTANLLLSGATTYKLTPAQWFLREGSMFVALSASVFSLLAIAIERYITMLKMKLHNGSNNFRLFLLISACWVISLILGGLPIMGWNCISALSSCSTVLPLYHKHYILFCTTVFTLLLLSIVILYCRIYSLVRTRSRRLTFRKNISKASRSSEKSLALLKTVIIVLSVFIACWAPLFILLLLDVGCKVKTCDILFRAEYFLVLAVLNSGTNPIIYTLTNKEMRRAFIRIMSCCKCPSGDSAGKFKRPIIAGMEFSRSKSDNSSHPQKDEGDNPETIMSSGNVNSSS
# Lysine-specific demethylase 4A, sequence (O75164 whole entry): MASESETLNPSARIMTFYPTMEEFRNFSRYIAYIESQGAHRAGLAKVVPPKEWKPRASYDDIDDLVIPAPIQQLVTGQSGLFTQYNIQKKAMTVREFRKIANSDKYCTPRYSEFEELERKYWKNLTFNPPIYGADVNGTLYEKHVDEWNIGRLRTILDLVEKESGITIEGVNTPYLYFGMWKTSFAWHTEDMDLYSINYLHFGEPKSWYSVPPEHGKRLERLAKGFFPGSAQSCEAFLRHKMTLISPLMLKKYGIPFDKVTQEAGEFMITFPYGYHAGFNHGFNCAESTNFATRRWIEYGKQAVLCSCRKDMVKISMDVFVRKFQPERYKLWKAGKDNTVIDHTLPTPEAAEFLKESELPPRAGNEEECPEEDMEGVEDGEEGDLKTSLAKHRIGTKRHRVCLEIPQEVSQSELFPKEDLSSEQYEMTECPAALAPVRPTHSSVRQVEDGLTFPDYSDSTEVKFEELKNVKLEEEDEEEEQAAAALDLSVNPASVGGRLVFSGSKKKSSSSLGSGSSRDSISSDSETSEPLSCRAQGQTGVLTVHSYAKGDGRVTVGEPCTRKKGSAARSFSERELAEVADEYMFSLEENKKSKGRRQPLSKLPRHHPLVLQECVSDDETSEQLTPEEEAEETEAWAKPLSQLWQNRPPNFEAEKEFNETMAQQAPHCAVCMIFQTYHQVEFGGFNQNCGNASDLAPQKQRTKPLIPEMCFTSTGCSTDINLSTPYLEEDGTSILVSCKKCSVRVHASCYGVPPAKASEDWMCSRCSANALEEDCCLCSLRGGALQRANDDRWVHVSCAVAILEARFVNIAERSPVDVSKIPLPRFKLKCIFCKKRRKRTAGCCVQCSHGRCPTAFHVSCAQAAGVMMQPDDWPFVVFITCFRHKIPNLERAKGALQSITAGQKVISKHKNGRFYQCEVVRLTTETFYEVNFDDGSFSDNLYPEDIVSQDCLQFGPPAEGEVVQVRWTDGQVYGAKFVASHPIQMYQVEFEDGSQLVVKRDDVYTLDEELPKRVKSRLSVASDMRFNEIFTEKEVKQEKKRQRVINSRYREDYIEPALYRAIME
# SUMO E1/E2, sequence (Q9UBE0 whole entry): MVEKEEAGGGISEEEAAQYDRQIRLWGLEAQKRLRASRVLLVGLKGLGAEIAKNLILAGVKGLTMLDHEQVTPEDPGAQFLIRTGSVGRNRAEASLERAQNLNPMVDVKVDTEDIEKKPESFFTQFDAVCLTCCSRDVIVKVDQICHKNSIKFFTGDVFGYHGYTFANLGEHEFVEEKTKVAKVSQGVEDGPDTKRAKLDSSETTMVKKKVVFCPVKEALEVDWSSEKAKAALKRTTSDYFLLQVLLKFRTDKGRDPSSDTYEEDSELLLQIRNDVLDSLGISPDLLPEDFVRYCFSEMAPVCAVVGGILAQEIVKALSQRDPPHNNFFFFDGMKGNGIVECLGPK
# SUMO E1/E2, sequence (Q9UBT2 whole entry): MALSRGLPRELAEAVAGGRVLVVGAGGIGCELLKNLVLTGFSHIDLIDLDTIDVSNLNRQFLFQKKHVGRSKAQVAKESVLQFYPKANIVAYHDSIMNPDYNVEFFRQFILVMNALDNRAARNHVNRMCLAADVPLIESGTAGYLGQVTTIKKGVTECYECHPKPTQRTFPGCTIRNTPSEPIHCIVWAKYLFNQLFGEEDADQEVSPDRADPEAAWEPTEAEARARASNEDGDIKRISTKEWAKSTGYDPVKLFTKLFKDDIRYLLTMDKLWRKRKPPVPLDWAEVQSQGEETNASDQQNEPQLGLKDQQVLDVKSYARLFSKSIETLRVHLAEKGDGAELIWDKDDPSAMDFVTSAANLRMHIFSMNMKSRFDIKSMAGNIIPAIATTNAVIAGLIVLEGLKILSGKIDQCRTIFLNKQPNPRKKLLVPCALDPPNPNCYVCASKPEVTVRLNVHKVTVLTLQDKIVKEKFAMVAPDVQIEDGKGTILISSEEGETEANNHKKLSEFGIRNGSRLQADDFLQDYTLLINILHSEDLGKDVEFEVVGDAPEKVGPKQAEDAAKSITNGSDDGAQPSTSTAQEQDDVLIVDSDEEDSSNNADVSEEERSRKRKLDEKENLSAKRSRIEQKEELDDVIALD
# SUMO E1/E2, sequence (P63279 whole entry): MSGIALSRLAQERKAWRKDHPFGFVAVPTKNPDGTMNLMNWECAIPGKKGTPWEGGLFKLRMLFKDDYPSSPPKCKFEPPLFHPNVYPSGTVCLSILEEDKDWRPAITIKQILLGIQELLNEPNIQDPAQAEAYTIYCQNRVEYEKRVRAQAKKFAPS
# CAAX prenyl protease 2, sequence (Q9Y256 whole entry): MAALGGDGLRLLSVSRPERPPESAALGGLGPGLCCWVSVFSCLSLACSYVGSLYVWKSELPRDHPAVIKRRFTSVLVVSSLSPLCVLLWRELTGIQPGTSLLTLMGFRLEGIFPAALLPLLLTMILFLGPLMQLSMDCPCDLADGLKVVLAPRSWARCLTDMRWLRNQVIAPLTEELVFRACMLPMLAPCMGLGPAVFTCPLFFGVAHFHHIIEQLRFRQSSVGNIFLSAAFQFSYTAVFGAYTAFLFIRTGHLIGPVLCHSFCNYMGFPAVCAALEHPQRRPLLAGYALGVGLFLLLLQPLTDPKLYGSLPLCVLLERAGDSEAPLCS
smiles,measurement,setting,value
CC(=NOCc1nc2ccccc2c(=O)n1N=Cc1cc([N+](=O)[O-])ccc1O)c1ccccc1,IC50,SUMO E1/E2,27 µM (active)
COc1ccc(Nc2cc(C)nc(-n3nc(C)cc3C)n2)cc1,EC50,[1],0.266 µM (active)
same,IC50,[2],2.54 µM (active)
same,EC50,BJ [3],0.625 µM (active)
same,EC50,[4],0.142 µM (active)
same,IC50,[5],< 0.25 µM (active)
same,EC50,[6],< 0.195 µM (active)
same,EC50,BJ [7],0.973 µM (active)
same,EC50,BJ [8],0.388 µM (inconclusive)
same,EC50,[9],0.4 µM (active)
same,CC50,[10],0.201 µM (active)
same,CC50,[11],> 20 µM (active)
same,CC50,[12],1.41 µM (active)
same,IC50,[13],> 80 µM (inactive)
same,IC50,cells,0.38 µM (active)
Cc1ccc(N2CCN(CCCCN3C(=O)C4CCCN4C3=O)CC2)cc1 (configuration not stated),IC50,[14],> 79.4 µM (inactive)
same,IC50,[15],> 79.4 µM (inactive)
same,IC50,[16],> 79.4 µM (inactive)
COc1ccc(C2CC(c3cccs3)=NN2c2ccc(C=O)cc2)cc1 (configuration not stated),EC50,[17],12.5 µM (inactive)
same,EC50,[18],18.3 µM (active)
same,IC50,[19],41.2 µM (not active)
same,EC50,[20],24.6 µM (active)
same,EC50,[21],8.63 µM (active)
same,IC50,Insulin-degrading enzyme,> 55.9 µM (not active)
same,AC50,CAAX prenyl protease 2,8.53 µM (active)
COc1ccccc1NC(=O)COC(=O)c1nc(O)nc(O)c1N,AC50,[22],8.34 µM (active)
same,AC50,[23],6.73 µM (active)

# Reference: ChEMBL document CHEMBL1201862, “PubChem BioAssay data set” (2004)
